From US7964607B2, “Pyrazolo[3,4-d]pyrimidine compounds” (Pfizer Inc., priority 2007, dated 2011)

Biological target: T1, human recombinant PDE9 enzyme (Homo sapiens, UniProt O76083)
T1 construct: made in house; host or cells: SF-9 insect cells
Assay: Phosphodiesterase 9 (PDE9) inhibitory activity, Scintillation Proximity (SPA) assay
Assay type: biochemical
Conditions: human recombinant PDE9 from SF-9 cells; 50 nM [3H]cGMP; room temperature, 30 min; Examples 3-114; read-out: G5678A (U): IC50
Procedure, shortened: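 Scintillation proximity read-out of [3H]cGMP hydrolysis after 30 min at room temperature, with enzyme addition starting the reaction. The enzyme was human recombinant PDE9 expressed in SF-9 cells, titrated to keep substrate turnover at 20% or less. Compound wells held 2% DMSO final, and background was defined with excess PDE inhibitor.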

T1 sequence (O76083 whole entry): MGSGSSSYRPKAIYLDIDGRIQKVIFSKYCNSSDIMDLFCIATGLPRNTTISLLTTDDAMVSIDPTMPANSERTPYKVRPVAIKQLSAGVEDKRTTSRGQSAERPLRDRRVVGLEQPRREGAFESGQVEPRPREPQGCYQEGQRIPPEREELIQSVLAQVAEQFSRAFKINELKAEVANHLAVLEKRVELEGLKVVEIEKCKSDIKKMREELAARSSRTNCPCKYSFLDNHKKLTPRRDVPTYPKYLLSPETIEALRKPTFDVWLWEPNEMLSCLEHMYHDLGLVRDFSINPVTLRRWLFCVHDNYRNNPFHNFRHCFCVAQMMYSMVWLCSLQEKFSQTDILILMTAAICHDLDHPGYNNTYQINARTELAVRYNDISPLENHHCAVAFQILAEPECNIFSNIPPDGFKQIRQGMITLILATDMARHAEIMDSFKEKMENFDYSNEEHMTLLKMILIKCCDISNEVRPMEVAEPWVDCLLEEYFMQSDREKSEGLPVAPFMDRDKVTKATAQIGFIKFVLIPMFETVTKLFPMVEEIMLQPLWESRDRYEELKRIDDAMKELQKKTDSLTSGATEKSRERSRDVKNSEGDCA

| SMILES | IC50 |
| --- | --- |
| CC(C)n1ncc2c(=O)[nH]c([C@@H]3CN(Cc4ccc5nccnc5c4)C[C@H]3C)nc21 [Example 36, 1-isopropyl-6-[(3S,4S)-4-methyl-1-(quinoxalin-6-ylmethyl)pyrrolidin-3-yl]-1,5-dihydro-4H-pyrazolo[3,4-d]pyrimidin-4-one] | 5.08 nM |
| CC(C)n1ncc2c(=O)[nH]c([C@@H]3CN(Cc4cnc5ccccc5c4)C[C@H]3C)nc21 [Example 37, 1-isopropyl-6-[(3S,4S)-4-methyl-1-(quinolin-3-ylmethyl)pyrrolidin-3-yl]-1,5-dihydro-4H-pyrazolo[3,4-d]pyrimidin-4-one] | 3.23 nM |
| Cc1cnc(CN2C[C@@H](C)[C@H](c3nc4c(cnn4C4CCCC4)c(=O)[nH]3)C2)cn1 [Example 38, 1-cyclopentyl-6-{(3S,4S)-4-methyl-1-[(5-methylpyrazin-2-yl)methyl]pyrrolidin-3-yl}-1,5-dihydro-4H-pyrazolo[3,4-d]pyrimidin-4-one] | 5.75 nM |
| CC[C@@H]1CN(Cc2ccccc2)C[C@H]1c1nc2c(cnn2C(C)C)c(=O)[nH]1 [Example 40, 6-[(3S,4S)-1-benzyl-4-ethylpyrrolidin-3-yl]-1-isopropyl-1,5-dihydro-4H-pyrazolo[3,4-d]pyrimidin-4-one] | 44.5 nM |
| Cc1ncc(CN2C[C@@H](C)[C@H](c3nc4c(cnn4C(C)C)c(=O)[nH]3)C2)cn1 [Example 41, 1-isopropyl-6-{(3S,4S)-4-methyl-1-[(2-methylpyrimidin-5-yl)methyl]pyrrolidin-3-yl}-1,5-dihydro-4H-pyrazolo[3,4-d]pyrimidin-4-one] | 63.8 nM |
| O=c1[nH]c(C2CCN(Cc3ccccc3)C2)nc2c1cnn2C1CCCC1 (stereo not drawn) [Example 42, 6-(1-benzylpyrrolidin-3-yl)-1-cyclopentyl-1,5-dihydro-4H-pyrazolo[3,4-d]pyrimidin-4-one] | 268 nM |
| COc1ccc(CN2C[C@@H](C)[C@H](c3nc4c(cnn4C(C)C)c(=O)[nH]3)C2)cn1 [Example 43, 1-isopropyl-6-{(3S,4S)-1-[(6-methoxypyridin-3-yl)methyl]-4-methylpyrrolidin-3-yl}1,5-dihydro-4H-pyrazolo[3,4-d]pyrimidin-4-one] | 36.4 nM |
| Cc1cc(CN2C[C@@H](C)[C@H](c3nc4c(cnn4C4CCCC4)c(=O)[nH]3)C2)n(C)n1 [Example 47, 1-cyclopentyl-6-{(3S,4S)-1-[(1,3-dimethyl-1H-pyrazolo-5-yl)methyl]-4-methylpyrrolidin-3-yl}-1,5-dihydro-4H-pyrazolo[3,4-d]pyrimidin-4-one] | 5.53 nM |
| C[C@@H]1CN(Cc2cnn3c2CCCC3)C[C@H]1c1nc2c(cnn2C2CCCC2)c(=O)[nH]1 [Example 48, 1-cyclopentyl-6-[(3S,4S)-4-methyl-1-(4,5,6,7-tetrahydropyrazolo[1,5-a]pyridin-3-ylmethyl)pyrrolidin-3-yl]-1,5-dihydro-4H-pyrazolo[3,4-d]pyrimidin-4-one] | 40.7 nM |
| C[C@@H]1CN(Cc2nc3ccccc3n2C)C[C@H]1c1nc2c(cnn2C2CCCC2)c(=O)[nH]1 [Example 49, 1-cyclopentyl-6-{(3S,4S)-4-methyl-1-[(1-methyl-1H-benzimidazol-2-yl)methyl]pyrrolidin-3-yl}-1,5-dihydro-4H-pyrazolo[3,4-d]pyrimidin-4-one] | 4.55 nM |
| Cc1cnc(CN2C[C@@H](C)[C@H](c3nc4c(cnn4C(C)C)c(=O)[nH]3)C2)cn1 [Example 50, 1-isopropyl-6-{(3S,4S)-4-methyl-1-[(5methylpyrazin-2-yl)methyl]pyrrolidin-3-yl}-1,5-dihydro-4H-pyrazolo[3,4-d]pyrimidin-4-one] | 125 nM |
| C[C@@H]1CN(Cc2cc3ccccc3nn2)C[C@H]1c1nc2c(cnn2C2CCCC2)c(=O)[nH]1 [Example 51, 6-[(3S,4S)-1-(cinnolin-3-ylmethyl)-4-methylpyrrolidin-3-yl]-1-cyclopentyl-1,5-dihydro-4H-pyrazolo[3,4-d]pyrimidin-4-one] | 8.19 nM |
